What was measured:
[1] = Micelle size by dynamic light scattering and freeze-fracture electron microscopy; format: physicochemical; details: PEG-PE micelles with vs without tamoxifen
Procedure: When required, 0.5 ml of a 12 μM solution of 2C5 or 2G4 in borate, pH 9.0 was added to 0.5 ml of pNP-PEG-PE-containing micelles with a PEG-PE concentration of 1.5 mM. The mixture was incubated for 3 h at room temperature (RT) and dialyzed against HBS, using cellulose ester membranes with a cut-off size of 300,000 Da (Spectrum Medical Industries, Rancho Dominguez, Calif.). To assess the quantity of the micelle-bound protein, CF-labeled antibody was used. Protein concentration was measured by associated fluorescence at an excitation wavelength of 490 nm and an emission of 520 nm on a F-2000 spectrofluorimeter (Hitachi, Japan). The micelle size was measured by dynamic light scattering using a N4 Plus Submicron Particle System (Coulter Corporation, Miami, Fla.) at PEG-PE concentration of 2-10 mM.
Freeze-fracture electron microscopy. The sample was quenched using the sandwich technique and liquid nitrogen-cooled propane. A cooling rate of 10,000K/sec avoids ice crystal formation and cryofixation-caused artifacts. The fracturing process was carried out in JEOL JED-9000 freeze-etching equipment (Jeol, Peabody, Mass.) and the exposed fracture planes were shadowed with Pt for 30 sec at an angle of 25-35 degrees followed with carbon for 35 sec (2 kV, 60-70 mA, 1×10^−5 Torr). […]

[2] = Encapsulation of tamoxifen into PEG-PE micelles; format: physicochemical; details: drug/PEG-PE molar ratio 1:1, after 0.22 μm filtration
Procedure: Tamoxifen dissolved in methanol was added to the solution of PEG-PE in chloroform to obtain the drug/PEG-PE molar ratio of 1:1. Organic solvents were evaporated and micelles were formed by shaking the tamoxifen/PE-PEG film obtained in the presence of an aqueous buffer at 50° C. Free tamoxifen was removed by filtration through 0.22 μm filters. Tamoxifen was quantified using the assay procedure for diethylstilbesterol (United States Pharmacopeal Convention, 2000).

LLC tumors = assay: Inhibition of LLC tumor growth in mice with different taxol preparations; format: in vivo; details: ca. 100 μg taxol per injection, two injections, twenty days after first injection, untreated 2.00±0.60 g
Procedure: Inhibition of tumor growth with different taxol preparations. Mice with LLC tumors were injected with different taxol formulations on day 10 post inoculation (ca. 100 μg of taxol per animal per injection). On day 5 after the first administration, the injections were repeated. Twenty days after the first injection, the mice were sacrificed; tumors extracted, rinsed twice with saline, wiped, and weighed. There were five mice in each experimental group.

[3] = Incorporation of porphyrin into PEG-PE micelles; format: physicochemical
Procedure: Porphyrin dissolved in methanol was added to a solution of PEG-PE in chloroform to obtain various final ratios of components. Organic solvents were removed under vacuum. Micelles were formed by shaking the PEG-PE/porphyrin film obtained in the presence of an aqueous buffer. Excess of porphyrin not incorporated into the micelles was separated by filtration of the micelle suspension through 0.2 μm filter. Concentration of porphyrin in micellar phase was estimated following the fluorescence at the excitation wavelength of […] and the emission wavelength of 674 nm (F635/674) after 100-200-fold dilution of the samples in methanol.

With `CC/C(=C(\c1ccccc1)c1ccc(OCCN(C)C)cc1)c1ccccc1` [tamoxifen] the “effect of drug incorporation on micelle size” value [1] was “does not change the size of the micelles significantly” and the “tamoxifen incorporated into PEG-PE micelles” value [2] was “more than 95%”.

In the case of `CC(=O)O[C@H]1C(=O)[C@@]2(C)[C@H]([C@H](OC(=O)c3ccccc3)[C@]3(O)C[C@H](OC(=O)[C@H](O)[C@@H](NC(=O)c4ccccc4)c4ccccc4)C(C)=C1C3(C)C)[C@]1(OC(C)=O)CO[C@@H]1C[C@@H]2O` [free taxol, paclitaxel], the “average weight of excised tumors” value (LLC tumors) was 1.58 ± 0.48 g.

In the case of chlorin e6 trimethyl ester [porphyrin], the “efficiency of incorporation into micelles” value ([3]; initial porphyrin/PEG-PE weight ratio of 1/2) was “about 80%”, the “efficiency of incorporation into micelles” value ([3]; initial porphyrin/PEG-PE weight ratio of up to 1/5) was ~100% and the “drug/PEG-PE in the resultant micelles” value ([3]; initial weight ratio of 1/2) was 2/5.

Reference: patent US20060216342A1, “Micelle delivery system loaded with a pharmaceutical agent” (priority 2003, published 2006)
